Patent publication US9879036B2, “Mitochondrial aldehyde dehydrogenase-2 binding compounds and methods of use thereof” (Aviv Therapeutics, Inc., priority 2014, dated 2018)
Numbering of substitutions follows the chain as printed.

What was measured:
ALDH2*1/*1 = molecular target: T1, ALDH2*1/*1 (Homo sapiens, UniProt P05091); assay: ALDH2 enzymatic activity, NADH accumulation at 340 nm, acetaldehyde substrate, wild type; type: biochemical; settings: relative to baseline enzymatic activity (100%)
T1 construct: His-tag (N); made in house; host or cells: E. coli BL21 (pTrcHis vector)
T1 sequence (P05091 18-517): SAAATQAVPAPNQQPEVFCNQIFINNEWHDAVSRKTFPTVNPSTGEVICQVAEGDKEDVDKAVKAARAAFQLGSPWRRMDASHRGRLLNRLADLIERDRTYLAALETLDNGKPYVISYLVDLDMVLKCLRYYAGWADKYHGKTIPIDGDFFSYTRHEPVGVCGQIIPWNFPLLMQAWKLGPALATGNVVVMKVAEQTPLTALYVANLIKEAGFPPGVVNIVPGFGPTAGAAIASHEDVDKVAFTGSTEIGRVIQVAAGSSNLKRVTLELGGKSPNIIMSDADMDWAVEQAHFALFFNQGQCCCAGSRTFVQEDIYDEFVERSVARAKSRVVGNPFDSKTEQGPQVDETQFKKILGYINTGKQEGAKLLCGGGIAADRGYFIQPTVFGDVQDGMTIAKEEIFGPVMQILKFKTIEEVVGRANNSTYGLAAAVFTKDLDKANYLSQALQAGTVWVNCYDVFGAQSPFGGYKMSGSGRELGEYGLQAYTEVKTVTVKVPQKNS
Procedure: (§1) ALDH2 catalyzes the oxidative reaction of substrate acetaldehyde to acetic acid using NAD^+ as a cofactor. Enzymatic activity, or catalytic rate, of aldehyde dehydrogenase (ALDH2) are measured spectrophotometrically at UV wavelength λ340 nm by the accumulation of reduced product NADH derived from NAD^+. Absorbance at λ340 nm is quantitatively proportional to the amount of NADH being produced over time (6.22 O.D. unit=1 mmol of NADH, measured in a 1-cm width standard cuvette). This method is well-established in the literature [e.g. Rex et al., Alcohol Clin. Exp. Res. 9, 147 (1985)].
as §1, with “can be” for “are”
(§2) Cloning, expression and purification of human ALDH2 wild type and ALDH2*2 recombinant mutant enzymes: Full-length wild type human ALDH2 cDNA was purchased from ATCC (No. MGC-1806. GenBank ID: BC002967). The 18-amino acid mitochondria transport signal sequence was removed by PCR and cloned into the NheI/HindIII sites of a His-tag vector, pTrcHis, using standard molecular cloning techniques. The human ALDH2* cDNA construct containing the Asian E487K mutation was obtained by site-directed mutagenesis to create the E487K substitution of the wild type ALDH2. Both human clones were designed to express a recombinant protein with the His-tag at the N-terminus of the protein. For the co-expression experiments of human ALDH2 wild type and ALDH2*2 heterotetramers, a wild type ALDH2 gene and a ALDH2 E487K gene were inserted separately into the two multiple cloning sites of pETDuet-1 vector. (Novagen, CA, USA). All the vectors were transformed into BL21 E. coli host cells and subjected to 0.5 mM IPTG induction for protein expression at 30° C. Purifications of the recombinant proteins by affinity nickel columns (HisTrap, GE Healthy Science, USA) were carried out using standard protocols according to manufacturer's instructions (Novagen, USA).
(§3) ALDH2 catalyzes the oxidative reaction of substrate acetaldehyde to acetic acid using NAD^+ as a cofactor. Enzymatic activity, or catalytic rate, of aldehyde dehydrogenase (ALDH2) can be measured spectrophotometrically at UV wavelength λ340 nm by the accumulation of reduced product NADH derived from NAD^+. Because compounds of formula (I) are considered to be agonists or “activators” of ALDH2 the enzymatic activity measured will exceed 100% of the baseline enzymatic activity of the enzyme in its normal activation state. As the concentration of the compounds of formula (I) decreases from 20 micromolar to 0.16 micromolar in the presence of ALDH, a decrease in the activation of enzymatic activity is observed for the wild-type ALDH2*1/*1 and the heterozygous form ALDH2*1/*2.

ALDH2*1/*2 = molecular target: T2, ALDH2*1/*2 (Homo sapiens, UniProt P05091, E504K); assay: ALDH2 enzymatic activity, NADH accumulation at 340 nm, acetaldehyde substrate, heterozygous form; type: biochemical; settings: relative to baseline enzymatic activity (100%)
T2 construct: His-tag; made in house; host or cells: E. coli BL21 (pETDuet-1 co-expression)
T2 sequence (P05091 18-517): T1 sequence (P05091 18-517)
T2 sequence (P05091 18-517 E504K): T1 sequence (P05091 18-517) with E487K
Procedure: as §1
as §1, with “can be” for “are”
as §2, §3

activity at 2.5 µM (ALDH2*1/*1; 2.5 μM compound): 208%
activity at 5 µM (ALDH2*1/*1; 5 μM compound): 238%
activity at 10 µM (ALDH2*1/*1; 10 μM compound): 293%
activity at 20 µM (ALDH2*1/*1; 20 μM compound): 299%
activity at 2.5 µM (ALDH2*1/*2; 2.5 μM compound): 202%
activity at 5 µM (ALDH2*1/*2; 5 μM compound): 260%
activity at 10 µM (ALDH2*1/*2; 10 μM compound): 281%
activity at 20 µM (ALDH2*1/*2; 20 μM compound): 336%
Structure (SMILES): COc1ccc(CNC(=O)c2cc(-c3ncccc3CO)ccc2OCC2CC2)cc1F [AC6]
